A compilation of properties of binary mixtures (doi:10.1021/jp308139r)

Assay: xn = mol fraction of the nth substance listed
Settings: 101 kPa

C[NH+](C)C.O=S(=O)([N-]S(=O)(=O)C(F)(F)F)C(F)(F)F + CC1COC(=O)O1
Settings	electrical conductivity [S/m]
264.45 K, x2 = 0.701	0.519
273.15 K, x2 = 0.701	0.687
283.15 K, x2 = 0.701	1
293.15 K, x2 = 0.701	1.34
298.15 K, x1 = 0.0002	0.011
298.15 K, x1 = 0.0005	0.022
298.15 K, x1 = 0.002	0.066
298.15 K, x1 = 0.0055	0.155
298.15 K, x2 = 0.5091	1.41
298.15 K, x2 = 0.5632	1.5
298.15 K, x2 = 0.6802	1.66
298.15 K, x2 = 0.843	1.43
303.15 K, x2 = 0.701	1.74
313.15 K, x2 = 0.701	2.16
323.15 K, x2 = 0.701	2.61
333.15 K, x2 = 0.701	3.09
343.15 K, x2 = 0.701	3.59
353.15 K, x2 = 0.701	4.1

C[S+](C)C.O=S(=O)([N-]S(=O)(=O)C(F)(F)F)C(F)(F)F + CC1COC(=O)O1
Settings	electrical conductivity [S/m]
265.55 K, x2 = 0.76	0.468
276.95 K, x2 = 0.76	0.708
294.65 K, x2 = 0.76	1.18
298.15 K, x1 = 0.0001	0.009
298.15 K, x1 = 0.0003	0.023
298.15 K, x1 = 0.0053	0.177
298.15 K, x2 = 0.5156	1.07
298.15 K, x2 = 0.565	1.21
298.15 K, x2 = 0.6897	1.37
298.15 K, x2 = 0.7404	1.39
298.15 K, x2 = 0.8098	1.34
298.15 K, x2 = 0.8571	1.25
298.15 K, x2 = 0.9218	0.964
298.15 K, x2 = 0.9792	0.39
303.15 K, x2 = 0.76	1.44
313.15 K, x2 = 0.76	1.8
323.15 K, x2 = 0.76	2.16
343.15 K, x2 = 0.76	2.94
353.15 K, x2 = 0.76	3.34

C[S+](C)C.O=S(=O)([N-]S(=O)(=O)C(F)(F)F)C(F)(F)F + O=C1CCCO1
Settings	electrical conductivity [S/m]
264.75 K, x2 = 0.8	0.887
273.15 K, x2 = 0.8	1.11
283.85 K, x2 = 0.8	1.43
293.15 K, x2 = 0.8	1.75
298.15 K, x1 = 0.0001	0.011
298.15 K, x1 = 0.0002	0.015
298.15 K, x1 = 0.0003	0.025
298.15 K, x1 = 0.0005	0.038
298.15 K, x1 = 0.0008	0.052
298.15 K, x1 = 0.0047	0.226
298.15 K, x1 = 0.0187	0.583
298.15 K, x2 = 0.5398	1.35
298.15 K, x2 = 0.5798	1.49
298.15 K, x2 = 0.66	1.74
298.15 K, x2 = 0.72	1.9
298.15 K, x2 = 0.8	2.01
298.15 K, x2 = 0.8695	1.89
303.15 K, x2 = 0.8	2.11
313.15 K, x2 = 0.8	2.5
323.15 K, x2 = 0.8	2.9
333.15 K, x2 = 0.8	3.32
343.15 K, x2 = 0.8	3.74
353.15 K, x2 = 0.8	4.17

O=C1CCCO1 + C[NH+](C)C.O=S(=O)([N-]S(=O)(=O)C(F)(F)F)C(F)(F)F
x1 = 1
Settings	viscosity [mPa·s]
298.15 K	1.74
303.15 K	1.61
313.15 K	1.39
323.15 K	1.22
343.15 K	0.96

C[S+](C)C.O=S(=O)([N-]S(=O)(=O)C(F)(F)F)C(F)(F)F + CC#N
Settings	electrical conductivity [S/m]
283.15 K, x2 = 0.87	4.66
293.45 K, x2 = 0.87	5.28
298.15 K, x1 = 0.0001	0.043
298.15 K, x1 = 0.0002	0.103
298.15 K, x1 = 0.0003	0.148
298.15 K, x1 = 0.0033	0.839
298.15 K, x1 = 0.0129	2.17
298.15 K, x2 = 0.4883	2
298.15 K, x2 = 0.56	2.74
298.15 K, x2 = 0.64	3.56
298.15 K, x2 = 0.72	4.44
298.15 K, x2 = 0.8	5.35
298.15 K, x2 = 0.86	5.74
298.15 K, x2 = 0.9497	4.59
303.25 K, x2 = 0.87	5.88
313.15 K, x2 = 0.87	6.45
333.15 K, x2 = 0.87	7.48
343.15 K, x2 = 0.87	8.05
353.15 K, x2 = 0.87	8.67

C[NH+](C)C.O=S(=O)([N-]S(=O)(=O)C(F)(F)F)C(F)(F)F + CC#N
Settings	electrical conductivity [S/m]
265.55 K, x2 = 0.86	4.31
273.15 K, x2 = 0.86	4.81
283.15 K, x2 = 0.86	5.49
293.15 K, x2 = 0.86	6.17
298.15 K, x1 = 0.0001	0.022
298.15 K, x1 = 0.0004	0.273
298.15 K, x1 = 0.0008	0.438
298.15 K, x1 = 0.0021	0.755
298.15 K, x1 = 0.0083	1.81
298.15 K, x2 = 0.5587	3.69
298.15 K, x2 = 0.6	4.08
298.15 K, x2 = 0.72	5.54
298.15 K, x2 = 0.78	6.28
298.15 K, x2 = 0.84	6.76
298.15 K, x2 = 0.8901	6.73
298.15 K, x2 = 0.938	5.86
298.15 K, x2 = 0.9677	4.21
313.15 K, x2 = 0.86	7.54
323.15 K, x2 = 0.86	8.22
333.15 K, x2 = 0.86	8.88
343.15 K, x2 = 0.86	9.57
353.15 K, x2 = 0.86	10.2

C[NH+](C)C.O=S(=O)([N-]S(=O)(=O)C(F)(F)F)C(F)(F)F + O=C1CCCO1
Settings	electrical conductivity [S/m]	viscosity [mPa·s]
263.15 K, x2 = 0.74	0.948	–
273.15 K, x2 = 0.74	1.19	–
283.15 K, x2 = 0.74	1.61	–
293.15 K, x2 = 0.74	2.01	–
298.15 K, x1 = 0.0001	0.005	–
298.15 K, x1 = 0.0003	0.027	–
298.15 K, x1 = 0.0046	0.214	–
298.15 K, x1 = 0.0188	0.613	–
298.15 K, x2 = 0.5778	2.09	–
298.15 K, x2 = 0.5976	–	6.89
298.15 K, x2 = 0.639	2.26	–
298.15 K, x2 = 0.672	–	5.66
298.15 K, x2 = 0.6802	2.35	–
298.15 K, x2 = 0.7426	2.44	–
298.15 K, x2 = 0.7428	–	4.51
298.15 K, x2 = 0.8047	2.36	–
298.15 K, x2 = 0.8088	–	3.5
298.15 K, x2 = 0.8692	2.06	–
298.15 K, x2 = 0.8803	–	2.64
298.15 K, x2 = 0.9328	1.44	–
303.15 K, x2 = 0.5976	–	5.87
303.15 K, x2 = 0.672	–	4.85
303.15 K, x2 = 0.74	2.49	–
303.15 K, x2 = 0.7428	–	3.91
313.15 K, x2 = 0.5976	–	4.35
313.15 K, x2 = 0.74	2.97	–
313.15 K, x2 = 0.7428	–	3.01
313.15 K, x2 = 0.8088	–	2.35
323.15 K, x2 = 0.5976	–	3.39
323.15 K, x2 = 0.672	–	2.84
323.15 K, x2 = 0.74	3.47	–
323.15 K, x2 = 0.7428	–	2.29
323.15 K, x2 = 0.8088	–	1.91
323.15 K, x2 = 0.8803	–	1.49
333.15 K, x2 = 0.5976	–	2.74
333.15 K, x2 = 0.672	–	2.34
333.15 K, x2 = 0.8088	–	1.48
333.15 K, x2 = 0.8803	–	1.2
335.15 K, x2 = 0.74	4.11	–
343.15 K, x2 = 0.5976	–	2.22
343.15 K, x2 = 0.672	–	1.9
343.15 K, x2 = 0.7428	–	1.45
343.15 K, x2 = 0.8088	–	1.17
343.45 K, x2 = 0.74	4.56	–
353.15 K, x2 = 0.74	5.09	–
